Measurements as given in PMC4127593, “Novel human D-amino acid oxidase inhibitors stabilize an active-site lid-open conformation” (Bioscience Reports, 2014).
“Also recorded” adds a separate entry of the source. Read-outs that look alike come from different tables or passages of the source.

Legend:
hDAAO [1] = biological target: T1, hDAAO (Homo sapiens, UniProt P14920); test: LC–MS-based hDAAO inhibition assay, D-phenylglycine as substrate; type: biochemical; conditions: 5 nM His-hDAAO, 5 mM D-phenylglycine, 450 nM FAD; mean±S.D.
T1 construct: hexaHis (N); made in house
T1 sequence (P14920 whole entry): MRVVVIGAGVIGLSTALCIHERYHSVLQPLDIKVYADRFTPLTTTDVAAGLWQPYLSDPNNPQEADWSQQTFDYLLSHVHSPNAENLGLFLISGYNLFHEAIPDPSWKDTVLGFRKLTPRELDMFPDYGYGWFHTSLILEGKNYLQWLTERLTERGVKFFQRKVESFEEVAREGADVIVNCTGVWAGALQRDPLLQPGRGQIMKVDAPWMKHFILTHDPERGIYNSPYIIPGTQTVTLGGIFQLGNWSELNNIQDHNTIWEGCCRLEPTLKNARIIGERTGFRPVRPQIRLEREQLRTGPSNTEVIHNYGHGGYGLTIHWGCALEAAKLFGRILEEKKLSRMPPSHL
Method: (§1) All enzymatic assays were conducted at room temperature (23–24°C) in 96-well plate format. Dose response data to generate IC50 data were analysed via Prism (Graphpad Software) or by a script executed by Pipeline Pilot (Accelrys).
For the LC–MS-based hDAAO inhibition assay, his-hDAAO, FAD and compound inhibitors were incubated for 20–30 min. After that period, D-phenylglycine was added and reaction proceeded for 1 h. […] Following the 1 h enzymatic reaction, an equal volume of 100% (v/v) acetonitrile was added. Quantitation of benzylformic acid concentrations was performed using negative ion liquid chromatography/mass spectrometry/mass spectrometry (LC–MS/MS). A 2 μl aliquot of sample was injected onto an ultra-high performance liquid chromatographic system (UPLC Waters Corp) equipped with an API 5500 QTrap mass spectrometer detector (Applied Biosystems/MDS Sciex) operated in the negative TurboIonSpray® mode. […] The mobile phases used for elution consisted of 1.0 mM ammonium formate with 0.2% (v/v) formic acid in water (A) and 1.0 mM ammonium formate with 0.2% (v/v) formic acid in acetonitrile (B) at a total flow rate of 0.600 ml/min. Wash solvent 1 was 3% formic acid in acetonitrile and wash solvent 2 was 3% formic acid in water. Calibration standards were injected once before and once after the analysis of unknown samples to construct a standard curve. A linear weighted (1/concentration^2) regression analysis of the analyte peak area ratio versus theoretical concentration was used to produce calibration curves from standards.

[2] = biological target: HRP/hydrogen peroxide detection system (Armoracia rusticana, UniProt P00433); test: Counter assay (Amplex Red; hDAAO omitted, hydrogen peroxide included); conditions: Amplex Red detection system without hDAAO
Sequence of HRP/hydrogen peroxide detection system (P00433 31-338): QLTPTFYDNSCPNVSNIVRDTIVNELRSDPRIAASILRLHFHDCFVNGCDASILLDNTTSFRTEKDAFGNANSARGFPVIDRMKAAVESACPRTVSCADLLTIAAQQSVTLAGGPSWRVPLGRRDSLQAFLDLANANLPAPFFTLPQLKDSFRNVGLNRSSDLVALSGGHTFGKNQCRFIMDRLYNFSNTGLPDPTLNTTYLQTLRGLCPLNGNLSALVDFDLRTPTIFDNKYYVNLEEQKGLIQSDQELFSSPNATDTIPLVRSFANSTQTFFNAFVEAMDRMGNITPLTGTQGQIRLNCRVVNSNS
Method: (§2) For our assay, N-terminal hexaHis (His)-tagged hDAAO (prepared as described previously [32]), HRP (horseradish peroxidase), FAD, and compound inhibitor were incubated for 20–30 min. After that pre-incubation period, D-serine and Amplex Red were added and reaction proceeded for 1 hour. Fluorescent product, caused by hydrogen peroxide-dependent, Amplex Red oxidation during hDAAO-catalysed substrate turnover, was measured on a FlexStation II (Molecular Devices) in endpoint mode with these settings: excitation 530 nm, emission 590 nm, cutoff 590 nm and photomultiplier tube on Low. […] For the counter assay, hDAAO was omitted and 800 nM hydrogen peroxide (Sigma) was included.

[3] = In vivo brain penetration after intraperitoneal dosing; conditions: mouse, brain and plasma, ip; mice, dosed intraperitoneally; results not shown; read-out: brain:plasma compound ratio
From the text: Multiple groups have pursued the discovery of potent, brain-penetrant, drug-like hDAAO inhibitors for use in treating schizophrenia and other nervous system disorders. Thus, the identification of a novel hDAAO conformation could guide the design of the next generation of hDAAO inhibitors. […] Like all existing high-affinity hDAAO inhibitors, interaction of these compounds with Arg^283 of hDAAO requires a carboxylic acid or other electronegative moiety, a feature that is known to reduce brain penetration. […] Potency gained by optimizing ligand binding in these hDAAO regions could conceivably reduce the need for extensive Arg^283 association, and, thus, could facilitate the creation of novel inhibitors of hDAAO.

hDAAO [4] = biological target: T1, hDAAO; test: Jump-dilution assay (reversibility, apparent dissociation rate); type: biochemical; conditions: for koff: jump-dilution
Method: The assay mixture was similar to that described above for the Amplex Red-based assay system. […] After a 30 min pre-incubation to form inhibited complexes, 195 μl of reaction mixture was added. Compared with the standard assay, 50 mM D-serine was utilized as the hDAAO substrate. […] Immediately after adding the reaction mixture, fluorescent substrate was monitored kinetically by the FlexStation II. Data were fit using the following equation [38] in which Pis the fluorescent product formed, tis the time, vs is the final, steady-state reaction velocity, vi is the initial reaction velocity, and k is the koff: (1) [P]=vst+vi−vs/k(1−e^−kt)

hDAAO [5] = biological target: T1, hDAAO; test: D-serine and FAD saturation experiments (mechanism of inhibition, Ki); type: biochemical; conditions: for Mechanism of inhibition: D-serine saturation at 40 μM FAD, FAD saturation at 50 mM D-serine; for Ki: global fit of D-serine saturation data to equations (3) and (4), mean±S.D.
Method: To determine inhibitor mechanism of action (D-serine- or FAD-competition), saturation experiments were performed using the Amplex Red system. Keeping D-serine or FAD constant, concentration of the other substrate was varied, and hDAAO enzymatic product was measured fluorescently as described above; these saturation tests were conducted in the presence of variable amounts of inhibitor. In these experiments, there was no preincubation period, such that hDAAO was exposed to D-serine, FAD and inhibitor simultaneously. […] After a 1 h reaction, product was measured using the FlexStation II in the endpoint mode. Data were plotted and fit with a one site, specific binding equation (Graphpad Prism): (2) y=Vmax×x/KM+x
Equation (2) permitted a determination of Vmax and KM at variable inhibitor concentration for a determination of competitive, uncompetitive or non-competitive profile. For D-serine competitive inhibitors, the same data were fit using the GraphPad Prism ‘Competitive inhibition’ equation to derive a global Ki value: (3) KM,obs=KM(1+[I]Ki) (4) y=Vmax×x/KM,obs+x

[6] = biological target: T2, hDAAO (human D-amino acid oxidase) (Homo sapiens, UniProt P14920); test: hDAAO inhibition assay, Amplex Red format, D-serine as substrate; type: biochemical; conditions: for IC50: 0.73 nM His-hDAAO, 5 mM D-serine, 450 nM FAD, pH 7.4, mean±S.D.; for IC50 values relative to compound 3: in several of the biochemical assays
T2 construct: hexaHis (N); made in house
T2 sequence (P14920 whole entry): as the sequence (P14920 whole entry) above
Method: as §1, §2

rDAAO (rat DAAO) = rDAAO (rat DAAO) (Rattus norvegicus, UniProt O35078); test: rDAAO inhibition assay, Amplex Red format
Sequence of rDAAO (rat DAAO) (O35078 whole entry): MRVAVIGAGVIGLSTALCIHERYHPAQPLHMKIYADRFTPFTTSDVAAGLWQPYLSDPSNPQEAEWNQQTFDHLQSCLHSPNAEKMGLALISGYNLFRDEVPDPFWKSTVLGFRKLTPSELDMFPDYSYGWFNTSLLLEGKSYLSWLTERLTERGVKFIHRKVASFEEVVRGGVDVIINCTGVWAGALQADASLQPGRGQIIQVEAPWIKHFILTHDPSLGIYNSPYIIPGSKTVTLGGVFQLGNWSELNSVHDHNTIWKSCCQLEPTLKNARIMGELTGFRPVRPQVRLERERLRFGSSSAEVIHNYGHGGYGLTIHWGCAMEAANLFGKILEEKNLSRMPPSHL
Method: as §1, §2

[7] = 80 μM FAD pre-incubation, 50 mM D-serine, mean±S.D.

Compound	IC50 (hDAAO [1]) [nM]	Mechanism of inhibition (hDAAO [5])	IC50 [6] [nM]	IC50 (rDAAO (rat DAAO)) [nM]	also measured
Nc1ncnc2c1ncn2[C@@H]1O[C@H](COP(=O)(O)OP(=O)(O)O)[C@@H](O)[C@H]1O [ADP, reference compound]	–	FAD-competitive inhibitor of hDAAO; also recorded: D-serine mixed competition, FAD competitive	580000 ± 80000	–	–
O=c1[nH]nc(CCc2ccc(O)cc2O)cc1O [Compound 5, 6-(2,4-dihydroxyphenethyl)-4-hydroxypyridazin-3(2H)-one]	13	–	54 ± 10	130	IC50 values relative to compound 3 [6]: 5–10 fold
Cc1cc(=O)oc2cc(O)c(CCC(=O)O)cc12 [Compound 4]	–	–	18000	–	hDAAO inhibitory potency weaker than compound 2 ([6]; relative to compound 2): approximately 500 fold
O=C(O)c1cc2occc2[nH]1 [Compound 1, 4H-furo[3,2-b]pyrrole-5-carboxylic acid, reference compound]	–	–	–	87 ± 11	inhibition in the counter assay [2]: did not display inhibition

Continued, in another order:

IC50 (hDAAO [1]) [nM]	Mechanism of inhibition (hDAAO [5])	IC50 [6] [nM]	IC50 (rDAAO (rat DAAO)) [nM]	Compound	also measured
230 ± 180	D-serine competitive, FAD uncompetitive	37 ± 14	4000 ± 1400	O=C(O)CCc1cc2c(-c3ccccc3)cc(=O)oc2cc1O [Compound 2, 3-(7-hydroxy-2-oxo-4-phenyl-2H-chromen-6-yl)propanoic acid]	inhibition in the counter assay [2]: did not display inhibition; Kp [3]: < 0.05; hDAAO inhibition after dilution (hDAAO [4]; 5 nM compound, 50 mM D-serine recovery conditions): no significant inhibition; reversibility of inhibition (hDAAO [4]; 200 nM then 5 nM jump dilution): reversible inhibition; koff (hDAAO [4]; [7]): 0.12 ± 0.02 (8) per min; Ki (hDAAO [5]): 7 ± 1.4 nM; inhibition at 0.2 µM ([6]; 200 nM compound): > 80%
24	–	7.2 ± 1	83 ± 7	COc1ccc(CCc2cc(O)c(=O)[nH]n2)c(OC)c1 [Compound 6, 6-(2,4-dimethoxyphenethyl)-4-hydroxypyridazin-3(2H)-one]	IC50 values relative to compound 3 [6]: 5–10 fold
110 ± 20	D-serine competitive, FAD uncompetitive	20 ± 5	47 ± 16	O=c1cc(-c2ccccc2)c2cc(CCc3cc(O)c(=O)[nH]n3)c(O)cc2o1 [Compound 3, 4-hydroxy-6-(2-(7-hydroxy-2-oxo-4-phenyl-2H-chromen-6-yl)ethyl)pyridazin-3(2H)-one]	Kp [3]: < 0.05; dissociative half-life (hDAAO [4]; from koff): ~1 h; koff (hDAAO [4]; [7]): 0.015 ± 0.03 (3) per min; koff (hDAAO [4]; read-out: off-rate (koff) (converted)): 0.00025 s⁻¹; Ki (hDAAO [5]): < 10 nM; more potent as hDAAO inhibitor than compound 2 ([6]; relative to compound 2): approximately 2 fold
